For assay [1], the system named is HPPD variant APESV V162 (SEQ ID NO: 123). In words: coupled HGO assay. Type of assay: biochemical, Apera spica-venti. As to the method:
(§1) DNA sequences (SEQ ID NOs: 65-118, 128, 130, 131, and 133), synthesized for expression in E. coli, by GeneWiz (USA) to encode HPPD variants (SEQ ID NOs: 5-58, 122, 124, 125 and 127) derived from either Avena sativa (SEQ ID NOs: 122, 124), Alopecurus myosuroides (SEQ ID NO: 126) or Apera spica-venti (SEQ ID NOs: 123, 125) were transformed into E coli BL21 (DE3) (New England Biolabs) and grown in 0.5 ml Terrific broth +50 ug/ml Kanamycin media in a 96-deepwell block overnight (37° C., 900rpm). 25 ul of the overnight cultures were inoculated into fresh 96-deepwell block containing 1 ml Formedium Autoinduction Media (AIM). The AIM cultures were grown for 3h at 37° C. (900rpm) and then transferred to 20° C. overnight (900rpm) to allow protein expression. The overnight cultures were centrifuged and 500 ul of Cellytic B (Sigma Aldrich) was added to resuspend the cell pellets. The coupled HGO assay (Siehl et al, 2014) is used to generate IC50 values for the HPPD variants of interest.
(§2) E. coli BL21 (DE3) cells were transformed with a pET24a vector containing a C-terminally his-tagged Arabidopsis HGO gene, grown and induced overnight as described for the HPPD variants above. The cell pellet was resuspended in phosphate buffered saline at pH 7.4 containing 10% Glycerol, 1mm Tris[2-carboxyethyl] phosphine-HCl (TCEP) plus 30 mM Imidazole and lysed using lysozyme/benzonase. The extract was clarified by low speed centrifugation and purified in the same buffer down a 1 ml His Gravitrap column. The bound HGO was eluted in 0.25M imidazole and the fractions pooled and beaded into liquid nitrogen. All procedures apart from the centrifugation and beading steps were carried out under a nitrogen atmosphere.
(§3) The coupled HGO assay is carried out by adding 10 ul of HPPD extract to a 96-well plate and then adding 40 ul of reaction buffer (50 mM Bis Tris Propane, pH7.0, 25 mM sodium-L-ascorbate, 400μM mercaptoethanol, 50 μM Fe(II)SO4). The plates are left to incubate for 5 minutes on ice. […] 200 ul of HPP/HGO (197 μM hydroxyphenylpyruvic acid, 16 μl/ml Homogentisic Acid Oxidase in reaction buffer as described above) buffer is then added to the well and the reaction is regularly monitored (e.g. every 30 seconds-5 minutes) for absorbance at 330 nm for a given time period (e.g., for between 15-60 minutes). The data can then be used to calculate the IC50 value for each HPPD variant of interest.

In assay [2] the test system is HPPD variant ALOME V162 (SEQ ID NO: 126). In words: coupled HGO assay. The class given is biochemical, Alopecurus myosuroides. As to the method:
as §1, §2, §3

Assay [3] has as its system transgenic tobacco plants expressing mutant HPPD SEQ ID NO: 122. Kind of assay: spray test, herbicidal damage scoring. Type of assay: in vivo. The settings on record: 7 days after treatment, 100=complete death, 0=no damage, one value per event. The procedure:
DNA sequences that encode these polypeptides (optimized for tobacco or, optionally, codon optimized according to a target crop such as soybean) were prepared synthetically. Each sequence was designed to include a 5′ fusion with TMV omega 5′ leader sequence such that they are flanked at the 5′ end with XhoI and at the 3′ end with KpnI to facilitate direct cloning into a suitable binary vector for Agrobacterium-based plant transformation.
For example, a master plate of Agrobacterium tumefaciens containing the HPPD expressing the binary vector is used to inoculate 10 ml LB (L broth) containing 100 mg/l Rifampicin plus 50 mg/l Kanamycin using a single bacterial colony. This is incubated overnight at 28° C. shaking at 200 rpm. This entire overnight culture is used to inoculate a 50 ml volume of LB containing the same antibiotics. Again this is cultured overnight at 28° C. shaking at 200 rpm. The Agrobacterium cells are pelleted by centrifuging at 3000 rpm for 15 minutes and then resuspended in MS (Murashige and Skoog) medium containing 30 g/l sucrose, pH 5.9 to an OD […]=0.6. This suspension is dispensed in 25 ml aliquots into petri dishes.
Once rooted, plantlets are transferred from agar and potted into 50% peat, 50% John Innes Soil No. 3 or, for example, MetroMix® 380 soil (Sun Gro Horticulture, Bellevue, WA) with slow-release fertilizer in 3 inch round or 4 inch square pots and left regularly watered to establish for 8-12d in the glass house. Glass house conditions are about 24-27° C. day; 18-21° C. night and approximately a 14h (or longer in UK summer) photoperiod.
About 20-30 TO events are produced for a number of HPPD variant genes.
Single copy events amongst the Ti plant lines are identified by their 3:1 segregation ratio (with respect to kanamycin and/or herbicide) and by quantitative RT-PCR. Seed from the thus selected Ti tobacco (var. Samsun) lines are sown in 3 inch diameter pots containing 50% peat and 50% John Innes Soil No. 3. […] HPPD expression levels were monitored by Western analysis.
Tables 4.1-4.9 show the herbicidal damage scoring on transgenic tobacco plants 7 days after treatment. A score of 100=complete death and 0=no damage observed.

Consider three compounds from patent US20240043860A1, “NOVEL HYDROXYPHENYLPYRUVATE DIOXYGENASE POLYPEPTIDES AND METHODS OF USE THEREOF” (Syngenta Crop Protection AG, priority 2020, published 2024).

Where “and” joins values, the source holds several entries; their conditions need not be identical. Equal values may be shown once.

For orientation: IC50 means the concentration that inhibits the measured activity by half. Read a low IC50 as greater potency in that assay. Regarding `Cn1nnnc1NC(=O)c1ccc(C(F)(F)F)nc1-n1cncn1` [Herbicide D, N-(1-methyltetrazol-5-yl)-2-(1,2,4-triazol-1-yl)-6-(trifluoromethyl)pyridine-3-carboxamide], the results for the IC50 in assay [1] and in assay [2] were 11.3 µM and 10.5 µM, respectively. In addition, the “herbicidal damage scoring, Herbicide D (2000 g/ha)” value in assay [3] (Table 4.4, SEQ ID NO: 122) was 80 and 70 and 65 and 75 and 85 and 60.
As for `COc1ccc(-n2nc(C)cc(C(=O)C3C(=O)CCCC3=O)c2=O)cc1OC` [Herbicide C, dioxopyritrione], the results for the IC50 in assay [1] and in assay [2] were 0.26 µM and 0.25 µM, respectively. In addition, the “herbicidal damage scoring, Herbicide C 100 g/ha” value in assay [3] (Table 3.1, plants expressing SEQ ID 122) was 90 and 70 and 95 and 96. Moreover, the “herbicidal damage scoring, Herbicide C (200 g/ha)” value in assay [3] (Table 4.4, SEQ ID NO: 122) was 99 and 95 and 97 and 98.
With bicyclopyrone, the IC50 in assay [1] was < 0.39 µM; in assay [2] it was 0.53 µM. In addition, the “herbicidal damage scoring, Bicyclopyrone (800 g/ha)” value in assay [3] (Table 4.4, SEQ ID NO: 122) was 60 and 50 and 55 and 65 and 35 and 70 and 40.
